Active and inactive are the calls of the source. The calls are words filed in the database; no cut-off is given here.

Data set [1] deals with Trypanosoma brucei brucei. Nature of the data set: Antitrypanosomal activity against Trypanosoma brucei brucei S427 by resazurin dye based fluorescence assay. The class given is functional. (In general: The colour change of resazurin is a common sign of viable cells or microbes.)
Data set [2] can be described thus: Cytotoxicity against human HL-60 cells by resazurin dye based fluorescence assay. The class given is cell-based.
The nature of data set [3]: Selectivity index, ratio of GI50 for human HL-60 cells to GI50 for antitrypanosomal activity against Trypanosoma brucei brucei S427. The class given is toxicity. The note with it: read-out: RatioGI50.
The subject of data set [4] is Trypanosoma brucei brucei. Nature of the data set: Antitrypanosomal activity against Trypanosoma brucei brucei assessed as cell swelling. The class given is functional, organism-based.

As for `C#CCNC(=O)[C@H](CC)[C@H]1CC[C@H](C)[C@H]([C@@H](C)[C@H](O)[C@H](C)C(=O)[C@H](CC)[C@H]2O[C@]3(C=C[C@H](OC(C)=O)[C@]4(CC[C@@](C)([C@H]5CC[C@](O)(CC)[C@H](C)O5)O4)O3)[C@H](C)C[C@@H]2C)O1`, the figures for the GI50 in data set [1] and in data set [2] were 20.9 µM and 39.8 µM, respectively. Moreover, the selectivity ratio in data set [3] worked out at 2.

With `CC[C@@H](C(=O)[C@@H](C)[C@@H](O)[C@H](C)[C@@H]1O[C@@H]([C@@H](CC)C(=O)ONC(=O)c2ccccc2O)CC[C@@H]1C)[C@H]1O[C@]2(C=C[C@H](O)[C@]3(CC[C@@](C)([C@H]4CC[C@](O)(CC)[C@H](C)O4)O3)O2)[C@H](C)C[C@@H]1C`, the GI50 is 2.81 µM in data set [1] and 33.2 µM in data set [2]. Moreover, the selectivity ratio in data set [3] turned out to be 11.8.

As to `CCCCCCCCCC(=O)O[C@H]1C=C[C@]2(O[C@H]([C@@H](CC)C(=O)[C@@H](C)[C@@H](O)[C@H](C)[C@@H]3O[C@@H]([C@@H](CC)C(=O)O)CC[C@@H]3C)[C@@H](C)C[C@H]2C)O[C@@]12CC[C@@](C)([C@H]1CC[C@](O)(CC)[C@H](C)O1)O2`, the GI50 is 2.48 µM in data set [1] and 5.97 µM in data set [2]. Moreover, in data set [3], the selectivity ratio came out at 165. Moreover, the result in data set [4] was Active.

Take `Cc1ccc(C(=O)Nc2ccc(S(=O)(=O)O)c3cc(S(=O)(=O)O)cc(S(=O)(=O)O)c23)cc1NC(=O)c1cccc(NC(=O)Nc2cccc(C(=O)Nc3cc(C(=O)Nc4ccc(S(=O)(=O)O)c5cc(S(=O)(=O)O)cc(S(=O)(=O)O)c45)ccc3C)c2)c1` [SURAMIN]: the values for the 50% growth inhibitory concentration (GI50) in data set [1] and in data set [2] were 0.058 µM and > 100 µM, respectively. The selectivity ratio in data set [3] is > 1720.

Consider `C#CCOC(=O)[C@H](CC)[C@H]1CC[C@H](C)[C@H]([C@@H](C)[C@H](O)[C@H](C)C(=O)[C@H](CC)[C@H]2O[C@]3(C=C[C@H](O)[C@]4(CC[C@@](C)([C@H]5CC[C@](O)(CC)[C@H](C)O5)O4)O3)[C@H](C)C[C@@H]2C)O1`, for which the GI50 in data set [1] is 26.9 µM; in data set [2] it was > 100 µM. In addition, the selectivity ratio in data set [3] is > 3.7.

Regarding `CCCCCCCCNC(=O)O[C@H]1C=C[C@]2(O[C@H]([C@@H](CC)C(=O)[C@@H](C)[C@@H](O)[C@H](C)[C@@H]3O[C@@H]([C@@H](CC)C(=O)O)CC[C@@H]3C)[C@@H](C)C[C@H]2C)O[C@@]12CC[C@@](C)([C@H]1CC[C@](O)(CC)[C@H](C)O1)O2`, the GI50 in data set [1] was found to be 0.2 µM; in data set [2], 24.6 µM. In addition, in data set [3], the selectivity ratio was 123.

As to `CC[C@@H](C(=O)[C@@H](C)[C@@H](O)[C@H](C)[C@@H]1O[C@@H]([C@@H](CC)C(=O)O)CC[C@@H]1C)[C@H]1O[C@]2(C=C[C@H](OC(=O)c3ccccc3)[C@]3(CC[C@@](C)([C@H]4CC[C@](O)(CC)[C@H](C)O4)O3)O2)[C@H](C)C[C@@H]1C`, the results for the GI50 in data set [1] and in data set [2] were 0.34 µM and 13.5 µM, respectively. Besides, the selectivity ratio in data set [3] turned out to be 67.5.

For the compound `CCNC(=O)N(CC)C(=O)O[C@H]1C=C[C@]2(O[C@H]([C@@H](CC)C(=O)[C@@H](C)[C@@H](O)[C@H](C)[C@@H]3O[C@@H]([C@@H](CC)C(=O)O)CC[C@@H]3C)[C@@H](C)C[C@H]2C)O[C@@]12CC[C@@](C)([C@H]1CC[C@](O)(CC)[C@H](C)O1)O2`, the GI50 was 0.027 µM in data set [1] and 9.54 µM in data set [2]. For the same compound, the selectivity ratio in data set [3] stood at 353. Besides, the result in data set [4] was Active.

Take `CC[C@@H](C(=O)[C@@H](C)[C@@H](O)[C@H](C)[C@@H]1O[C@@H]([C@@H](CC)C(=O)O)CC[C@@H]1C)[C@H]1O[C@]2(C=C[C@H](OC(=O)Oc3ccccc3)[C@]3(CC[C@@](C)([C@H]4CC[C@](O)(CC)[C@H](C)O4)O3)O2)[C@H](C)C[C@@H]1C`: the concentration for 50% growth inhibition (GI50) in data set [1] worked out at 0.22 µM; in data set [2], 23.4 µM. Besides, the selectivity ratio in data set [3] stood at 106.

Turning to `CC[C@@H](C(=O)[C@@H](C)[C@@H](O)[C@H](C)[C@@H]1O[C@@H]([C@@H](CC)C(=O)O)CC[C@@H]1C)[C@H]1O[C@]2(C=C[C@H](OC(=O)Nc3ccccc3)[C@]3(CC[C@@](C)([C@H]4CC[C@](O)(CC)[C@H](C)O4)O3)O2)[C@H](C)C[C@@H]1C`, the GI50 in data set [1] was found to be 3.15 µM; in data set [2] it was 57.2 µM. Besides, the selectivity ratio in data set [3] turned out to be 18.2.

As to `CC[C@@H](C(=O)[C@@H](C)[C@@H](O)[C@H](C)[C@@H]1O[C@@H]([C@@H](CC)C(=O)ONC(=O)c2ccccc2)CC[C@@H]1C)[C@H]1O[C@]2(C=C[C@H](OC(C)=O)[C@]3(CC[C@@](C)([C@H]4CC[C@](O)(CC)[C@H](C)O4)O3)O2)[C@H](C)C[C@@H]1C`, the concentration for 50% growth inhibition (GI50) was found to be 0.47 µM in data set [1] and 19.1 µM in data set [2]. For the same compound, the selectivity ratio in data set [3] stood at 18.2.

For `C#CCOC(=O)[C@H](CC)[C@H]1CC[C@H](C)[C@H]([C@@H](C)[C@H](O)[C@H](C)C(=O)[C@H](CC)[C@H]2O[C@]3(C=C[C@H](OC(=O)OCC)[C@]4(CC[C@@](C)([C@H]5CC[C@](O)(CC)[C@H](C)O5)O4)O3)[C@H](C)C[C@@H]2C)O1`, the GI50 in data set [1] is 15 µM; in data set [2], > 100 µM. In data set [3], the selectivity ratio was > 312.

Turning to `CC[C@@H](C(=O)[C@@H](C)[C@@H](O)[C@H](C)[C@@H]1O[C@@H]([C@@H](CC)C(=O)ONC(=O)c2ccccc2O)CC[C@@H]1C)[C@H]1O[C@]2(C=C[C@H](OC(C)=O)[C@]3(CC[C@@](C)([C@H]4CC[C@](O)(CC)[C@H](C)O4)O3)O2)[C@H](C)C[C@@H]1C`, the concentration for 50% growth inhibition (GI50) is 0.59 µM in data set [1] and 203 µM in data set [2]. Moreover, in data set [3], the selectivity ratio turned out to be 353.

For `CC[C@@H](C(=O)[C@@H](C)[C@@H](O)[C@H](C)[C@@H]1O[C@@H]([C@@H](CC)C(=O)O)CC[C@@H]1C)[C@H]1O[C@]2(C=C[C@H](OC(C)=O)[C@]3(CC[C@@](C)([C@H]4CC[C@](O)(CC)[C@H](C)O4)O3)O2)[C@H](C)C[C@@H]1C`, the concentration for 50% growth inhibition (GI50) in data set [1] was 0.043 µM; in data set [2] it was 52.5 µM. In addition, the selectivity ratio in data set [3] is 21.2.

`CC[C@@H](C(=O)[C@@H](C)[C@@H](O)[C@H](C)[C@@H]1O[C@@H]([C@@H](CC)C(=O)O)CC[C@@H]1C)[C@H]1O[C@]2(C=C[C@@H](O)[C@]3(CC[C@@](C)([C@H]4CC[C@](O)(CC)[C@H](C)O4)O3)O2)[C@H](C)C[C@@H]1C` [SALINOMYCIN]: the GI50 in data set [1] stood at 0.3 µM; in data set [2], 50.5 µM. Further, the selectivity ratio in data set [3] came to 168. Further, the result in data set [4] was Active.

Consider `C#CCOC(=O)[C@H](CC)[C@H]1CC[C@H](C)[C@H]([C@@H](C)[C@H](O)[C@H](C)C(=O)[C@H](CC)[C@H]2O[C@]3(C=C[C@H](OC(C)=O)[C@]4(CC[C@@](C)([C@H]5CC[C@](O)(CC)[C@H](C)O5)O4)O3)[C@H](C)C[C@@H]2C)O1`, for which the results for the GI50 in data set [1] and in data set [2] were 22.4 µM and > 100 µM, respectively. The selectivity ratio in data set [3] amounted to 123.

On to `CC[C@@H](C(=O)[C@@H](C)[C@@H](O)[C@H](C)[C@@H]1O[C@@H]([C@@H](CC)C(=O)ONC(=O)c2ccccc2)CC[C@@H]1C)[C@H]1O[C@]2(C=C[C@H](O)[C@]3(CC[C@@](C)([C@H]4CC[C@](O)(CC)[C@H](C)O4)O3)O2)[C@H](C)C[C@@H]1C`, for which the GI50 in data set [1] stood at 0.32 µM; in data set [2], 9.54 µM. Also, the selectivity ratio in data set [3] stood at 29.8.

`CC[C@@H](C(=O)[C@@H](C)[C@@H](O)[C@H](C)[C@@H]1O[C@@H]([C@@H](CC)C(=O)O)CC[C@@H]1C)[C@H]1O[C@]2(C=C[C@H](OC(=O)C(C)C)[C@]3(CC[C@@](C)([C@H]4CC[C@](O)(CC)[C@H](C)O4)O3)O2)[C@H](C)C[C@@H]1C`: the 50% growth inhibitory concentration (GI50) in data set [1] is 0.036 µM; in data set [2], 21.6 µM. The selectivity ratio in data set [3] came out at 90.

As to `C#CCNC(=O)[C@H](CC)[C@H]1CC[C@H](C)[C@H]([C@@H](C)[C@H](O)[C@H](C)C(=O)[C@H](CC)[C@H]2O[C@]3(C=C[C@H](OC(=O)OCC)[C@]4(CC[C@@](C)([C@H]5CC[C@](O)(CC)[C@H](C)O5)O4)O3)[C@H](C)C[C@@H]2C)O1`, the GI50 in data set [1] was 13.8 µM; in data set [2], 61.8 µM. Also, the selectivity ratio in data set [3] is 106.

Regarding `CC[C@@H](C(=O)[C@@H](C)[C@@H](O)[C@H](C)[C@@H]1O[C@@H]([C@@H](CC)C(=O)O)CC[C@@H]1C)[C@H]1O[C@]2(C=C[C@H](OC(=O)OCC(C)(C)C)[C@]3(CC[C@@](C)([C@H]4CC[C@](O)(CC)[C@H](C)O4)O3)O2)[C@H](C)C[C@@H]1C`, the GI50 came out at 21.6 µM in data set [1] and 42.4 µM in data set [2]. Also, in data set [3], the selectivity ratio is 2.

With `CC[C@@H](C(=O)[C@@H](C)[C@@H](O)[C@H](C)[C@@H]1O[C@@H]([C@@H](CC)C(=O)O)CC[C@@H]1C)[C@H]1O[C@]2(C=C[C@H](OC(=O)NC(C)(C)C)[C@]3(CC[C@@](C)([C@H]4CC[C@](O)(CC)[C@H](C)O4)O3)O2)[C@H](C)C[C@@H]1C`, the 50% growth inhibitory concentration (GI50) in data set [1] was 0.32 µM; in data set [2] it was > 100 µM. In addition, in data set [3], the selectivity ratio is > 312.

As to `C#CCNC(=O)[C@H](CC)[C@H]1CC[C@H](C)[C@H]([C@@H](C)[C@H](O)[C@H](C)C(=O)[C@H](CC)[C@H]2O[C@]3(C=C[C@H](O)[C@]4(CC[C@@](C)([C@H]5CC[C@](O)(CC)[C@H](C)O5)O4)O3)[C@H](C)C[C@@H]2C)O1`, the GI50 in data set [1] stood at 2.97 µM; in data set [2], 44.8 µM. In addition, in data set [3], the selectivity ratio came out at 15.1.

On to `CC[C@@H](C(=O)[C@@H](C)[C@@H](O)[C@H](C)[C@@H]1O[C@@H]([C@@H](CC)C(=O)O)CC[C@@H]1C)[C@H]1O[C@]2(C=C[C@H](OC(=O)C34CC5CC(CC(C5)C3)C4)[C@]3(CC[C@@](C)([C@H]4CC[C@](O)(CC)[C@H](C)O4)O3)O2)[C@H](C)C[C@@H]1C`, for which the values for the concentration for 50% growth inhibition (GI50) in data set [1] and in data set [2] were 0.24 µM and 18.7 µM, respectively. Further, in data set [3], the selectivity ratio worked out at 55.

Usually GI50 stands for the concentration at which growth is held to half of that of the control.

For the origin of these results see ChEMBL document CHEMBL4732069, “Singly and doubly modified analogues of C20-epi-salinomycin: A new group of antiparasitic agents against Trypanosoma brucei” (Eur J Med Chem, 2021).
